Test results from US8933113B2 (Merck Sharp & Dohme Corp., priority 2011, dated 2015).

Each compound was assayed against T1, full-length human Mineralocorticoid Receptor (MR) (Homo sapiens, UniProt P08235) (assay: human MR NH Pro assay (PathHunter Protein:Protein interaction assay), MR antagonist activity). Conditions: PathHunter CHO-K1 cells overexpressing human MR; aldosterone about 0.3 nM; 6 hours at 37° C.; luminescence; read-out: Primary Assay IP rating (IP = inflection point for a given dose-response titration curve).
T1 construct: host or cells: PathHunter CHO-K1 cells
T1 sequence (P08235 1-984): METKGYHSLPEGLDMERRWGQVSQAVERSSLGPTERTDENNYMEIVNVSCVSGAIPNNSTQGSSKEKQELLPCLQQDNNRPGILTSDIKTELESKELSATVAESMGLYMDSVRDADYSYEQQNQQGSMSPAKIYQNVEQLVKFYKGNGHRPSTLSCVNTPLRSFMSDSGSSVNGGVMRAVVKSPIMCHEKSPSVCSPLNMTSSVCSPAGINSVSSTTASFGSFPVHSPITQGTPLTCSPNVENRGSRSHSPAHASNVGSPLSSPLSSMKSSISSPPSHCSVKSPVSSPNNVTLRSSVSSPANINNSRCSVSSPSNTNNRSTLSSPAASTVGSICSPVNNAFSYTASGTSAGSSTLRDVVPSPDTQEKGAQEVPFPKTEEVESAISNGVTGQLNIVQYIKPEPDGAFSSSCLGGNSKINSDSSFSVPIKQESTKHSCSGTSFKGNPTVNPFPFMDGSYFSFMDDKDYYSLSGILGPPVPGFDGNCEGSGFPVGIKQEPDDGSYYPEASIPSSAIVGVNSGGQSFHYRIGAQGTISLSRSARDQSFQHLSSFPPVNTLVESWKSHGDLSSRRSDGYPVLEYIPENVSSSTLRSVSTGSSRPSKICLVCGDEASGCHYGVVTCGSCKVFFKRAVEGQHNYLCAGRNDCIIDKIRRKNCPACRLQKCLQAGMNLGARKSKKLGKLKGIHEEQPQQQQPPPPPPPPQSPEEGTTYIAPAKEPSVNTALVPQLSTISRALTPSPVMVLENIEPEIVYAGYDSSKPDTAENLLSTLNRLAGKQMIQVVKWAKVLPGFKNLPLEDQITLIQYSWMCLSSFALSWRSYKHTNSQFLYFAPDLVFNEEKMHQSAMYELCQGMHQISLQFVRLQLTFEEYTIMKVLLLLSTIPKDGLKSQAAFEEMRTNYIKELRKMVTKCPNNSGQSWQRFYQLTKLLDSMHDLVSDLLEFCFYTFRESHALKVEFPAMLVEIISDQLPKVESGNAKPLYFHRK
Assay type: cell-based
Method in brief: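 PathHunter enzyme-complementation assay in cells of full-length human MR recruitment of a coactivator peptide, run in antagonist mode against aldosterone at about 0.3 to 1.0 nM final. Compounds are in a 10-point, 1:3 series from a 4.4 mM top. Incubation is 6 h at 37° C, then detection reagent for 1 h at RT, with a luminescence read-out.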

Row | SMILES | IC50 [µM]
1 | CCC(C(=O)NCCC#N)(c1ccc(Cl)cc1)n1ccc2c(NS(C)(=O)=O)cccc21 (centres unmarked) [Compound 48, 2-(4-chlorophenyl)-N-(2-cyanoethyl)-2-{4-[(methylsulfonyl)amino]-1H-indol-1-yl}butanamide] | 0.5 to 5
2 | CCC(C(=O)NCCc1ccccc1)(c1ccc(Cl)cc1)n1ccc2c(NS(C)(=O)=O)cccc21 (centres unmarked) [Compound 50, 2-(4-chlorophenyl)-2-{4-[(methylsulfonyl)amino]-1H-indol-1-yl}-N-(2-phenylethyl)butanamide] | 0.5 to 5
3 | CC[C@@](c1ccc(Cl)cc1)(c1noc(C)n1)n1ccc2c(NS(C)(=O)=O)cccc21 [Compound 57] | < 0.1
4 | CS(=O)(=O)Nc1cccc2c1ccn2C(c1ccc(Cl)cc1)c1nc(-c2ccccc2)no1 (centres unmarked) [Compound 63, N-{1-[(4-chlorophenyl)(3-phenyl-1,2,4-oxadiazol-5-yl)methyl]-1H-indol-4-yl}methanesulfonamide] | 0.5 to 5
5 | CC[C@@](c1ccc(Cl)cc1)(c1nc(-c2ccccc2)n[nH]1)n1ccc2c(NS(C)(=O)=O)cccc21 [Compound 64, (R)—N-{1-[1-(4-chlorophenyl)-1-(3-phenyl-1H-1,2,4-triazol-5-yl)propyl]-1H-indol-4-yl}methanesulfonamide] | 0.5 to 5
6 | CCC(c1ccc(Cl)cc1)(c1nnc(C)o1)n1ccc2c(NS(C)(=O)=O)cccc21 (centres unmarked) [Compound 68, N-{1-[1-(4-chlorophenyl)-1-(5-methyl-1,3,4-oxadiazol-2-yl)propyl]-1H-indol-4-yl}methanesulfonamide] | 0.1 to 0.5
7 | CCC(c1ccc(Cl)cc1)(c1nnc(C(F)(F)F)o1)n1ccc2c(NS(C)(=O)=O)cccc21 (centres unmarked) [Compound 69, N-(1-{1-(4-chlorophenyl)-1-[5-(trifluoromethyl)-1,3,4-oxadiazol-2-yl]propyl}-1H-indol-4-yl)methanesulfonamide] | 0.1 to 0.5
8 | CCC(c1ccc(Cl)cc1)(c1nnc(-c2ccccc2)o1)n1ccc2c(NS(C)(=O)=O)cccc21 (centres unmarked) [Compound 70, N-{1-[1-(4-chlorophenyl)-1-(5-phenyl-1,3,4-oxadiazol-2-yl)propyl]-1H-indol-4-yl}methanesulfonamide] | 0.5 to 5
9 | CCC(c1ccc(Cl)cc1)(c1nnc(-c2ccc(F)cc2)o1)n1ccc2c(NS(C)(=O)=O)cccc21 (centres unmarked) [Compound 72, N-(1-{1-(4-chlorophenyl)-1-[5-(4-fluorophenyl)-1,3,4-oxadiazol-2-yl]propyl}-1H-indol-4-yl)methanesulfonamide] | 0.1 to 0.5
10 | CCC(c1ccc(Cl)cc1)(c1nnc(-c2ccc(C(F)(F)F)cc2)o1)n1ccc2c(NS(C)(=O)=O)cccc21 (centres unmarked) [Compound 73, N-{1-[1-(4-chlorophenyl)-1-{5-[4-(trifluoromethyl)phenyl]-1,3,4-oxadiazol-2-yl}propyl]-1H-indol-4-yl}methanesulfonamide] | 0.1 to 0.5
11 | CCC(c1ccc(Cl)cc1)(c1nnc(-c2ccc(OC)cc2)o1)n1ccc2c(NS(C)(=O)=O)cccc21 (centres unmarked) [Compound 74, N-(1-{1-(4-chlorophenyl)-1-[5-(4-methoxyphenyl)-1,3,4-oxadiazol-2-yl]propyl}-1H-indol-4-yl)methanesulfonamide] | 0.1 to 0.5
12 | CCC(c1ccc(Cl)cc1)(c1nnc(-c2cc(F)cc(F)c2)o1)n1ccc2c(NS(C)(=O)=O)cccc21 (centres unmarked) [Compound 75, N-(1-{1-(4-chlorophenyl)-1-[5-(3,5-difluorophenyl)-1,3,4-oxadiazol-2-yl]propyl}-1H-indol-4-yl)methanesulfonamide] | 0.5 to 5
13 | CS(=O)(=O)Nc1cccc2c1ccn2C(CC#N)(c1ccc(Cl)cc1)c1nnc(-c2ccccc2)o1 (centres unmarked) [Compound 76, N-{1-[1-(4-chlorophenyl)-2-cyano-1-(5-phenyl-1,3,4-oxadiazol-2-yl)ethyl]-1H-indol-4-yl}methanesulfonamide] | 0.1 to 0.5
14 | CCC(c1ccc(Cl)cc1)(c1nc(-c2ccccc2)co1)n1ccc2c(NS(C)(=O)=O)cccc21 (centres unmarked) [Compound 77, N-{1-[1-(4-chlorophenyl)-1-(4-phenyl-1,3-oxazol-2-yl)propyl]-1H-indol-4-yl}methanesulfonamide] | 0.5 to 5

Now from value to compound:

Row | IC50 [µM] | SMILES
15 | 0.1 to 0.5 | CCNC(=O)C(CC)(c1ccc(Cl)cc1)n1ccc2c(NS(C)(=O)=O)cccc21 (centres unmarked) [Compound 46, 2-(4-chlorophenyl)-N-ethyl-2-{4-[(methylsulfonyl)amino]-1H-indol-1-yl}butanamide]
16 | 0.1 to 0.5 | CCC(C(=O)NCCF)(c1ccc(Cl)cc1)n1ccc2c(NS(C)(=O)=O)cccc21 (centres unmarked) [Compound 49, 2-(4-chlorophenyl)-N-(2-fluoroethyl)-2-{4-[(methylsulfonyl)amino]-1H-indol-1-yl}butanamide]
17 | < 0.1 | CCC(C(=O)NCC#N)(c1ccc(Cl)cc1)n1ccc2c(NS(C)(=O)=O)cccc21 (centres unmarked) [Compound 51, 2-(4-chlorophenyl)-N-(cyanomethyl)-2-{4-[(methylsulfonyl)amino]-1H-indol-1-yl}butanamide]
18 | 0.1 to 0.5 | CCC(C(=O)NCC(=O)OC)(c1ccc(Cl)cc1)n1ccc2c(NS(C)(=O)=O)cccc21 (centres unmarked) [Compound 52, methyl N-[2-(4-chlorophenyl)-2-{4-[(methylsulfonyl)amino]-1H-indol-1-yl}butanoyl]glycinate]
19 | 0.1 to 0.5 | CNC(=O)C(CC#N)(c1ccc(Cl)cc1)n1ccc2c(NS(C)(=O)=O)cccc21 (centres unmarked) [Compound 53, 2-(4-chlorophenyl)-3-cyano-N-methyl-2-{4-[(methylsulfonyl)amino]-1H-indol-1-yl}propanamide]
20 | 0.1 to 0.5 | CS(=O)(=O)Nc1cccc2c1ccn2C(CC#N)(C(=O)NCc1ccccc1)c1ccc(Cl)cc1 (centres unmarked) [Compound 54, N-benzyl-2-(4-chlorophenyl)-3-cyano-2-{4-[(methylsulfonyl)amino]-1H-indol-1-yl}propanamide]
21 | 0.1 to 0.5 | CS(=O)(=O)Nc1cccc2c1ccn2C(CC#N)(C(=O)NCC(F)(F)F)c1ccc(Cl)cc1 (centres unmarked) [Compound 55, 2-(4-chlorophenyl)-3-cyano-2-{4-[(methylsulfonyl)amino]-1H-indol-1-yl}-N-(2,2,2-trifluoroethyl)propanamide]
22 | 0.1 to 0.5 | CNC(=O)C(CC1CC1)(c1ccc(Cl)cc1)n1ccc2c(NS(C)(=O)=O)cccc21 (centres unmarked) [Compound 56, 2-(4-chlorophenyl)-3-cyclopropyl-N-methyl-2-{4-[(methylsulfonyl)amino]-1H-indol-1-yl}propanamide]
23 | < 0.1 | CCC(c1ccc(Cl)cc1)(c1noc(-c2ccc(F)cc2)n1)n1ccc2c(NS(C)(=O)=O)cccc21 (centres unmarked) [Compound 59, N-(1-{1-(4-chlorophenyl)-1-[5-(4-fluorophenyl)-1,2,4-oxadiazol-3-yl]propyl}-1H-indol-4-yl)methanesulfonamide]
24 | < 0.1 | CCC(c1ccc(Cl)cc1)(c1noc(-c2ccc(Cl)cc2)n1)n1ccc2c(NS(C)(=O)=O)cccc21 (centres unmarked) [Compound 60, N-(1-{1-(4-chlorophenyl)-1-[5-(4-chlorophenyl)-1,2,4-oxadiazol-3-yl]propyl}-1H-indol-4-yl)methanesulfonamide]
25 | < 0.1 | CC[C@@](c1ccc(Cl)cc1)(c1noc(-c2ccc(OC)cc2)n1)n1ccc2c(NS(C)(=O)=O)cccc21 [Compound 61, (R)—N-(1-{1-(4-chlorophenyl)-1-[5-(4-methoxyphenyl)-1,2,4-oxadiazol-3-yl]propyl}-1H-indol-4-yl)methanesulfonamide]
26 | 0.1 to 0.5 | CC[C@@](c1ccc(Cl)cc1)(c1nnc(C)[nH]1)n1ccc2c(NS(C)(=O)=O)cccc21 [Compound 65, (R)—N-{1-[1-(4-chlorophenyl)-1-(5-methyl-4H-1,2,4-triazol-3-yl)propyl]-1H-indol-4-yl}methanesulfonamide]
27 | 0.1 to 0.5 | CC[C@@](c1ccc(Cl)cc1)(c1nnc(C(F)(F)F)[nH]1)n1ccc2c(NS(C)(=O)=O)cccc21 [Compound 66, (R)—N-(1-{1-(4-chlorophenyl)-1-[5-(trifluoromethyl)-4H-1,2,4-triazol-3-yl]propyl}-1H-indol-4-yl)methanesulfonamide]
28 | 0.1 to 0.5 | CC[C@@](c1ccc(Cl)cc1)(c1nnc(C2CC2)o1)n1ccc2c(NS(C)(=O)=O)cccc21 [Compound 67, (R)—N-{1-[1-(4-chlorophenyl)-1-(5-cyclopropyl-1,3,4-oxadiazol-2-yl)propyl]-1H-indol-4-yl}methanesulfonamide]
29 | < 0.1 | CCC(c1ccc(Cl)cc1)(c1nnc(-c2ccc(Cl)cc2)o1)n1ccc2c(NS(C)(=O)=O)cccc21 (centres unmarked) [Compound 71, N-(1-{1-(4-chlorophenyl)-1-[5-(4-chlorophenyl)-1,3,4-oxadiazol-2-yl]propyl}-1H-indol-4-yl)methanesulfonamide]
